Data published in US9539298B2, “Lissencephaly therapeutic agent” (OSAKA CITY UNIVERSITY, priority 2010, dated 2017).

Tests used:
[1] = tested on: nerve cells from cerebellums of FVB mice; test: Analysis of toxicity of calpain inhibitors on cultured cerebellar nerve cells; type: cell-based, mouse
Description: The cerebellums were removed from 4- to 5-day-old FVB mice (15 mice). In a Ca^2+-free Hank's Balanced Salt Solution (CF-HBSS; Ca^2+, Mg^2+-free Hank's Balanced Salt Solution (CMF-HBBS, Sigma) containing 5 mM magnesium chloride (MgCl2, Wako) and 4 mg/mL glucose (Wako)), the meninges were removed and cut into pieces. After the cerebellum fragments were washed with CF-HBSS, the fragments were allowed to stand for 20 minutes at 37° C. in CF-HBSS containing 0.025% trypsin (Invitrogen) and 6.25 μg/mL deoxyribonuclease (DNase, Sigma), and then centrifuged. The resulting tissues were washed with 10% HS/BME (DNase Medium; obtained by adding 5 mM MgCl2 and 25 μg/mL DNase to Basal Medium Eagle (BME, Invitrogen) containing 10% Horse Serum (HS, Invitrogen)) and centrifuged. DNase medium was added to the cells, and the cells were transferred to a 24-well plate (Nunc). The cells were kept still for 30 minutes at 37′C under an atmospheric environment of 5% CO2, thereby suspending the cells. The cell suspension was isolated, and then washed with 10% HS/BME. The suspension was transferred again to a 24-well plate to be cultured for 16 hours at 37° C. under an atmospheric environment of 5% CO2. The cells were collected to BME containing 1% Bovine Serum Albumin (BSA, Sigma) and 0.5% N2 supplement (Invitrogen), and the cell suspension was seeded on a 35 mm glass base dish (Iwaki) coated beforehand with poly-L-lysine (Sigma) and laminin (Sigma) in an amount of […]. The cells were cultured for 8 hours at 37° C. under an atmospheric environment of 5% CO2. The cultured nerve cells were used as test nerve cells.
A culture solution (10% HS/BME) containing SNJ-1945, E64d, or ALLN was prepared in the following manner. SNJ-1945 dissolved in dimethyl sulfoxide (Sigma, D-5879) was mixed with a culture solution so that the final concentration became 200 μM, and was kept still for an hour at 37° C., thereby completely dissolving SNJ-1945 in the culture medium. ALLN and E64d were also dissolved in culture media in the same manner, except that ALLN and E64d were added to the culture media to final concentrations of 50 μM and 100 μM, respectively. The culture media in which the components were dissolved were added to the test nerve cells prepared above in an amount of 2 ml/well, and the cells were cultured for 16 hours. As a control, the same culture was conducted using a culture medium containing the same amount of dimethyl sulfoxide (Sigma, D-5879). After culture, the cells were observed using an inverted microscope (TCS FP5S, Leica). A 20× objective lens was used. Images were taken using dedicated software (LAS AF, Leica) under the condition of 512×512 pixels.

[2] = tested on: Lis1+/− cerebellar granule nerve cells; test: Migration capability of cerebellar granule nerve cells; type: cell-based, mouse; settings: 200 μM, 18-24 hours, FIG. 5
Description: Cerebellum tissue fragments of LIS1 gene hetero-deficient and wild-type mice (3-7 days after birth) (10 mice for each group) were crushed by gentle pipetting, and treated with 0.025% trypsin (Gibco, 25200)/0.0013% DNaseI (Sigma, DN-25) at 37° C. for 20 minutes. After centrifugation, a BME culture solution (Gibco, 21010) containing 10% equine blood serum was added for washing, and the reaction was stopped. Thereafter, the reaction liquid was subjected to pipetting by adding a BME culture solution containing 0.0052% DNaseI/10% equine blood serum, and filtered with a cell mesh-strainer (diameter=70 μm; Becton Dickinson). […]
After the incubation, the aggregates were washed with a phosphate buffer (PBS), and immobilized by 4% paraformaldehyde (Wako, 162-16065) (at room temperature, for 15 minutes). […] Thereafter, the aggregates were repeatedly washed well with PBS, and carefully embedded using glycerol (Merck) for fluorescence microscope observation so as to avoid damage.
After careful observation using a confocal laser microscope (TCS-SP5, Leica), the migratory distance (μm) of the nerve cells from the marginal zone of the cerebellum granule cell aggregates was measured for each cell group. […] Further, an average migratory distance (μm) was calculated and expressed as average migratory distance (μm)±standard deviation. […]

## COCCOCCOC(=O)N[C@@H](CC(C)C)C(=O)N[C@@H](Cc1ccccc1)C(=O)C(=O)NC1CC1 [compound 17, ((1S)-1-((((1S)-1-Benzyl-2,3-dioxo-3-(cyclopropylamino)propyl)amino)carbonyl)-3-methylbutyl)carbamic acid 5-methoxy-3-oxapentyl ester]
[1]; 200 μM, 16 hours, FIG. 24
  neurite elongation and cell migration (cytotoxicity): normal neurite elongation and cell migration were also observed, and no significant difference from the control was observed
[1]; compared with other calpain inhibitors
  cell toxicity: did not show any cell toxicity even in a high concentration
[2]
  migration capability of nerve cells: the recovery of migration capability was observed
